Assay results as given in patent US20250221435A1, “Food Protein-Derived Peptides as Bitter Taste Blockers” (University of Manitoba, priority 2018, published 2025).
pIC50: −log10 of the molar value. Where “and” joins values, the source holds several entries; their conditions need not be identical. Identical values can stand only once. Entries after “also recorded” stand apart in the source; their conditions may differ. Like-named read-outs stand apart in the source and are kept apart here. One block for each compound: values may come before it.

Tests used:
[1] = target: T1, T2R4 (Homo sapiens, UniProt Q9NYW5); assay: Calcium mobilization in T2R4-expressing HEK 293T cell system; type: cell-based; details: for blocking of quinine-dependent calcium release: 1 mM quinine plus 5 mg/mL fraction or 1 mM synthesized peptide
T1 construct: expressed in transfected cells
T1 sequence (Q9NYW5 1-299): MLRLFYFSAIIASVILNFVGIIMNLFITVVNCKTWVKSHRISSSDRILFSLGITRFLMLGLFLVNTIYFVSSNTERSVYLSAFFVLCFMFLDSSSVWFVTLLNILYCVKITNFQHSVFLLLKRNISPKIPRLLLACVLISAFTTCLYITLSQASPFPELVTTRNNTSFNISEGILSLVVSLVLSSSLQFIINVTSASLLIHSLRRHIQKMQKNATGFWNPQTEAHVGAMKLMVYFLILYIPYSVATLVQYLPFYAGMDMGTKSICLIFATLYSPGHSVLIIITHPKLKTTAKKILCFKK
Experimental: Determination of cellular calcium mobilization. Determination of the potential bitter taste-activating or blocking activity of BPH was carried out by measuring intracellular Ca^2+ mobilization using Fluo-4 NW calcium assay kit as previously described.^3 Stable transfected HEK293 cells expressing T2R4 and G-alpha 16/44 or HEK293T cells expressing only G-alpha 16/44 were used as experimental and negative control group, respectively. Around 1×10^5 cells/well plated in the 96-well BD-falcon biolux plate and then incubated at 37° C. in a CO2 incubator for 16 h. After incubation, the culture medium was substituted (for 40 min at 37° C. in the CO2 incubator followed by 30 min incubation at room temperature) with Fluo-4 NW dye solution, which contained lyophilized dye in 10 mL of assay buffer (1× Hanks' balanced salt solution, 20 mM HEPES) and 100 μL 2.5 mM probenecid added to prevent dye leakage from cytosol. Calcium mobilization was measured in terms of relative fluorescence units (RFUs) using a Flexstation-3 microplate reader (Molecular Devices, CA, USA) at 525 nm, following 494 nm excitation. […] The basal intracellular calcium levels were measured for the first 20 s followed by addition of appropriate concentration of ligands for another 120 s. To get the absolute RFUs, the basal RFU before adding the ligand, which was labeled minimum value (Min) was deducted from the maximum RFU (Max) obtained after stimulating with the ligand (absolute RFUs=Max−Min). […] Data were collected from two independent experiments, each done in triplicate.

[2] = target: T2, T2R14 (Homo sapiens, UniProt Q9NYV8); assay: Peptides and agonist competition calcium mobilization assays on T2R14; type: cell-based; details: for pIC50: IC50 for T2R14 activated by diphenhydramine, diphenhydramine 0.5 mM, peptide 0.015 mM-1 mM, HEK293T cells stably expressing T2R14; for blocking of diphenhydramine-dependent T2R14 activation: competition calcium mobilization assay
T2 construct: expressed in transfected cells
T2 sequence (Q9NYV8 1-317): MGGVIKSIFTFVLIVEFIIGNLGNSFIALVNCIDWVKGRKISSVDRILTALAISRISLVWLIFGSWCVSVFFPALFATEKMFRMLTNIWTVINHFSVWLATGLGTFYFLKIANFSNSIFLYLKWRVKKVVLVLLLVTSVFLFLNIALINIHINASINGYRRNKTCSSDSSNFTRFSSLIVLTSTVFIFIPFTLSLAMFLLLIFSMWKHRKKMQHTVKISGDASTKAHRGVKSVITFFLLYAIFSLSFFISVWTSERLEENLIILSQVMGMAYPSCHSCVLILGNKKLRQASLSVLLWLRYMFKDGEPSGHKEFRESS
Experimental: FIG. 9. Peptides and agonist competition calcium mobilization assays on T2R14. HEK293T cells stably expressing T2R14 were treated with the agonist diphenhydramine (0.5 mM) and with increasing concentrations of Peptide 4 (ETSARHL) and Peptide 5 (AGDDAPRAVF) ranging from 0.015 mM-1 mM. Changes in intracellular calcium were measured (ΔRFUs), and IC50 values were calculated using GraphPad Prism 4.0. […] Data were collected from a minimum of two independent experiments carried out in triplicate.
To generalize the applicability of these peptides in blocking other T2Rs, we choose T2R14 as our next target.
Determination of cellular calcium mobilization. Determination of the potential bitter taste-activating or blocking activity of BPH was carried out by measuring intracellular Ca^2+ mobilization using Fluo-4 NW calcium assay kit as previously described.^3 Stable transfected HEK293 cells expressing T2R4 and G-alpha 16/44 or HEK293T cells expressing only G-alpha 16/44 were used as experimental and negative control group, respectively. Around 1×10^5 cells/well plated in the 96-well BD-falcon biolux plate and then incubated at 37° C. in a CO2 incubator for 16 h. After incubation, the culture medium was substituted (for 40 min at 37° C. in the CO2 incubator followed by 30 min incubation at room temperature) with Fluo-4 NW dye solution, which contained lyophilized dye in 10 mL of assay buffer (1× Hanks' balanced salt solution, 20 mM HEPES) and 100 μL 2.5 mM probenecid added to prevent dye leakage from cytosol. Calcium mobilization was measured in terms of relative fluorescence units (RFUs) using a Flexstation-3 microplate reader (Molecular Devices, CA, USA) at 525 nm, following 494 nm excitation. Based on the e-tongue data, BPH at 5 mg/mL, BCML at 59 nM and agonist quinine at 1 mM were used individually or in combination with peptides to determine activation of T2R4. BPH or BCML was then mixed with quinine (1 mM final concentration) to obtain 5 mg/mL or 59 nM, respectively and used to determine inactivation of T2R4. The basal intracellular calcium levels were measured for the first 20 s followed by addition of appropriate concentration of ligands for another 120 s. To get the absolute RFUs, the basal RFU before adding the ligand, which was labeled minimum value (Min) was deducted from the maximum RFU (Max) obtained after stimulating with the ligand (absolute RFUs=Max−Min). Next, the signals from the negative control group cells were deducted from the observed signal of experimental group cells to give ΔRFUs. Data were collected from two independent experiments, each done in triplicate. PRISM software version 4.03 (GraphPad Software, San Diego) was used for data analysis.

[3] = Estimation of bitter scores by electronic-tongue (e-tongue); details: 1 mM quinine mixed with 5 mg/mL hydrolysate or 59 nM BCML
Experimental: Estimation of bitter scores by electronic-tongue (e-tongue). Each BPH was dissolved in distilled water to give 0.5, 1.0, 2.5, 5.0, and 10.0 mg/mL concentrations followed by filtration first through a 0.45 μm filter disc and then a 0.2 μm filter. Bitter scores of filtered BPH solutions (20 mL) were evaluated using the Astree II E-tongue system (Alpha M.O.S., Toulouse, France). This system is a completely automated taste analyzer equipped with seven sensors, BD, EB, JA, JG, KA, OA, and JE, based on the ChemFET technology (Chemical modified Field Effect Transistor) to analyze liquid samples. Firstly, 0.01 M HCl was used to condition and calibrate sensors and the reference electrode repeatedly until stable signals were obtained for all seven sensors with minimal or no noise and drift. […] Thereafter, the PLS bitterness standard model was constructed using several bitter taste compounds with known bitter taste scores determined from human panelists, including 0.24 mM and 2.36 mM caffeine, 0.03 mM and 0.12 mM quinine, 0.44 mM and 0.88 mM prednisolone, as well as 3.31 mM and 19.85 mM paracetamol. […] The 5 mg/ml sample was determined as the maximum strength useful to evaluate BPH bitterness intensity and this concentration was subsequently used to obtain bitter scores. […]

[4] = target: T1, T2R4; details: known T2R4 bitter taste blocker, positive control; read-out: IC50 for quinine of known T2R4 bitter taste blocker; cited from earlier work
[5] = 10 mM quinine solution; cited from earlier work

Compound: CC(C)[C@H](NC(=O)[C@H](C)NC(=O)[C@H](CCCNC(=N)N)NC(=O)[C@@H]1CCCN1C(=O)[C@H](C)NC(=O)[C@H](CC(=O)O)NC(=O)[C@H](CC(=O)O)NC(=O)CNC(=O)[C@H](C)N)C(=O)N[C@@H](Cc1ccccc1)C(=O)O [AGDDAPRAVF]
pIC50 [1]: 4.07 | blocking of quinine-dependent calcium release ([1]; T2R4-expressing HEK 293T cells): less calcium mobilization; also recorded: most effective blocker; also recorded: suppressed quinine-dependent calcium release | pIC50 [2]: ~4.00 and 3.93 | blocking of diphenhydramine-dependent T2R14 activation [2]: effective in blocking

Compound: NCCCC[C@@H](C(=O)O)N(CC(=O)O)CC(=O)O [BCML, Nα,Nα-bis(carboxymethyl)-I-lysine]
suppression of quinine bitterness intensity (e-tongue) [3]: most decrease | pIC50 [4]: 7.23

Compound: CC(C)C[C@H](NC(=O)[C@H](Cc1c[nH]cn1)NC(=O)[C@H](CCCNC(=N)N)NC(=O)[C@H](C)NC(=O)[C@H](CO)NC(=O)[C@@H](NC(=O)[C@@H](N)CCC(=O)O)[C@@H](C)O)C(=O)O [ETSARHL]
blocking of quinine-dependent calcium release ([1]; T2R4-expressing HEK 293T cells): less calcium mobilization; also recorded: suppressed quinine-dependent calcium release; also recorded: most effective | pIC50 [2]: ~4.00 and 3.92 | blocking of diphenhydramine-dependent T2R14 activation [2]: effective in blocking

calcium mobilization (ΔRFU), sample alone ([1]; T2R4-expressing HEK 293T cells, hydrolysates 5 mg/mL, quinine 1 mM, peptides 1 mM): highest activity
Compound: C=C[C@H]1C[N@@]2CC[C@H]1C[C@H]2[C@H](O)c1ccnc2ccc(OC)cc12 [Quinine, reference compound]

Compound: Nc1ncnc2c1ncn2[C@H]1C[C@H](O)[C@@H](COP(=O)(O)OP(=O)(O)OP(=O)(O)O)O1 [dATP, 2-deoxyadenosine triphosphate]
reduction in bitterness of quinine solution [5]: 60%

Compound: AAMY: peptide AAMY identified from CHYMOTRYPSIN hydrolysate fraction CH-F4-5, chemically synthesized (synthesized bitter taste blocker)
blocking of quinine-dependent calcium release ([1]; T2R4-expressing HEK 293T cells): less calcium mobilization; also recorded: suppressed quinine-dependent calcium release

Compound: AAYM: peptide AAYM identified from CHYMOTRYPSIN hydrolysate fraction CH-F4-5, chemically synthesized (synthesized bitter taste blocker)
blocking of quinine-dependent calcium release ([1]; T2R4-expressing HEK 293T cells): suppressed quinine-dependent calcium release

Compound: cytosine monophosphate [CMP]
reduction in bitterness of quinine solution [5]: 40%
